In patent publication EP3543705A1, “MITOCHONDRIAL PH PROBE” (priority 2018, dated 2019):

How the values were obtained:
A2780 cells [1] = test: mitochondrial pH of drug-treated cells, measured with 5FA-PIP-Cy5-DA; type: cell-based
Source text: The calibration curve for the ratio of 5Fluoro/Cy5 fluorescence was obtained using FCCP and a PBS-5% BSA buffer with A2780 cells in a manner analogous to the method described in Example 2 (see Figure 12). The quantifying of mitochondrial pH in the presence of the drug and after the drug was washed away allowed the distinction between interference with mitochondrial metabolism and general cytotoxicity. If the effect of the drug was primarily to affect mitochondrial metabolism it was expected that the mitochondrial pH would quickly return to the non-treated cell level following removal of the drug, providing the drug had no other significant cytotoxic effects. Conversely, if the effect of the drug were not reversed by the washing step, an observed alteration of mitochondrial pH could be interpreted at least partially as a downstream consequence of the general cytotoxicity of the drug. A2780 cells were cultured in 24-well microscopy glass bottom plates in RPMI medium, containing Glutamax with 10% FBS addition. The cells were treated with appropriate 800uM […] or 5uM cisplatin. […] If the drug was not washed away prior to staining, it remained present in the medium through the whole imaging time. Separate fluorescent images in green and deep red spectral channels were acquired. The florescence ratio was quantified by a specifically designed batch ImageJ plugin as described above. Statistical analysis was performed using 1-way ANOVA with Bonferroni-Holm post-hoc analysis.

[2] = tested on: mitochondria of A2780 ovarian cancer cell line; test: probe calibration in defined-pH buffers: collapse of the mitochondrial pH gradient; type: cell-based; conditions: stained cells in high K+ buffers, pH range 6.73 to 8.36
Experimental: A2780 ovarian cancer cells were cultured in 24-well microscopy glass bottom plates in a CO2 incubator. Prior to imaging, the cells were stained with 2uM 5FA-PIP-Cy5-DA, and/or TMRM (20nM) for 30 min in bicarbonate-free DMEM medium to avoid extracellular pH fluctuations, then washed with the same medium (without 5FA-PIP-Cy5-DA) and imaged with confocal spinning disk microscopy at 60x magnification When TMRM was used, this dye was also present in the bicarbonate-free DMEM medium during the imaging of the cells. Separate fluorescent images in green (488/520 nm) and deep red (640/660 nm) spectral channels were acquired on Visitron W1 spinning disk confocal microscope. The florescence ratio was quantified using a specifically designed batch ImageJ plugin. This software thresholds the pH-independent Cy5 channel, quantifies the fluorescence intensity in the thresholded image areas, and uses the thresholded mask to quantify the intensity of pH-dependent 5Fluo channel. The intensity ratio is then used to estimate the mitochondrial pH of the cells. Calibration of the intensity ratio was achieved through the staining of A2780 cells in a series of PBS - 5% BSA buffers with defined pH, containing 20mM HEPES and 5uM FCCP, to equilibrate the mitochondrial pH with the pH of the buffer.
The stained cells were treated with FCCP in high K^+ buffers in a pH range of 6.73 to 8.36.

[3] = tested on: mitochondria of A2780 ovarian cancer cell line; test: fluorescein/Cy5 fluorescence ratio in stained live cells treated with nigericin or FCCP; type: cell-based; conditions: 300 nM FCCP or 2uM nigericin versus DMSO vehicle control; cells stained with 2 µM 5FA-PIP-Cy5-DA
Experimental: A2780 ovarian cancer cells were cultured in 24-well microscopy glass bottom plates in a CO2 incubator. […] Separate fluorescent images in green (488/520 nm) and deep red (640/660 nm) spectral channels were acquired on Visitron W1 spinning disk confocal microscope. The florescence ratio was quantified using a specifically designed batch ImageJ plugin. This software thresholds the pH-independent Cy5 channel, quantifies the fluorescence intensity in the thresholded image areas, and uses the thresholded mask to quantify the intensity of pH-dependent 5Fluo channel. The intensity ratio is then used to estimate the mitochondrial pH of the cells. […] Typical pH variations in mitochondria of A2780 ovarian cancer cell line are represented at Figure 4. Typical staining procedure is described further. […] All images are maximum intensity projection. […] The mitochondrial staining on Figure 4A is very homogeneous. […] The mitochondrial staining on Figure 4B is very heterogeneous, unlike the Figure 4A. Figure 4C represents the overlap image of Figure 4A and Figure 4B. Bluish hint Figure 4C corresponds to relatively high mitochondrial pH, reddish to relatively low mitochondrial pH. Figure 4D represents bright field image. […] Confocal images were acquired for control, FCCP- and nigericin-treated cell samples, and the ratio between fluorescein and Cy5 channel fluorescence was quantified.

[4] = pH dependence of fluorescence at 520 nm of the active probe (pKa study); type: physicochemical; conditions: PBS buffer with 5% BSA, estimated
Experimental: The pH dependence for fluorescence at 520 nm of 5FA-PIP-Cy5, the active form of 5FA-PIP-Cy5-DA was measured with 5FA-PIP-Cy5 dissolved in a PBS buffer with 5% BSA. (see Figure 3). From this study the pKa of the active form was estimated to be 6.88. This value is within expectable range for the fluorescein moiety containing electron-donor amide group and is within the physiologically relevant range of 6.5 - 8.5.

A2780 cells [5] = test: mitochondrial staining with the inactive (caged) form versus the active form; type: cell-based; conditions: 2uM, identical conditions
LT-HSC = test: mitochondrial pH of hematopoietic stem cells in different culture conditions, measured with 5FA-PIP-Cy5-DA; type: cell-based, mice; conditions: LT-HSC cultured with 5 uM DMOG or IL-3 20 ng/mL and IL-6 100ng/mL, compared with basal medium, ST-HSC and MPP
Source text: For LT-HSC cells, three different culture conditions (basal medium, DMOG-induced chemical hypoxia and IL-3, IL-6 - induced differentiation) were examined. The calibration curve for the ratio of 5Fluoro/Cy5 fluorescence was obtained using FCCP and a PBS-5% BSA buffer with MPP cells in a manner analogous to the method described in Example 2 (see Figure 10). Fresh cells, extracted from bone marrow of 8-12 week old male mice were stained on ice for surface cell markers and sorted by FACS, according to the following phenotypes: LT-HSC Lin- cKit+ Sca1+ CD150+ CD34- CD48-; ST-HSC Lin- cKit+ Sca1 + CD150+ CD34+; MPP Lin- cKit+ Sca1 + CD150- CD34+. The cells were cultured in Hematopoietic Stemline II (Sigma) medium with addition of SCF and Flt-3 cytokines. For appropriate experiments, additionally 5 uM DMOG or IL-3 20 ng/mL and IL-6 100ng/mL cytokines were added. […] Separate fluorescent images in green and deep red spectral channels were acquired. The florescence ratio was quantified by a specifically designed batch ImageJ plugin as described above.

[6] = after the drug was washed away, treated one day with 800uM RAPTA-T or 5uM cisplatin, control cells pH 8.4
[7] = in the presence of the drug, treated one day with 800uM RAPTA-T or 5uM cisplatin, control cells pH 8.4

N.N.[Cl][Pt][Cl] [cisplatin]
mitochondrial pH (A2780 cells [1]; [6]): 8.0 | mitochondrial pH (A2780 cells [1]; [7]): 7.8

N#CC(C#N)=NNc1ccc(OC(F)(F)F)cc1 [FCCP, carbonylcyanide-4-trifluoromethoxyphenylhydrazone]
collapse of the mitochondrial pH gradient [2]: full collapse of the mitochondrial pH gradient | 5Fluo-Cy5 ratio [3]: clear measurable decrease

CC[C@H]1/C=C/C=C/C[C@@H](C)[C@H](O)[C@@](C)(O)C(=O)[C@@H](C)[C@H](O)[C@@H](C)C(=O)[C@@H](C)[C@H](O)[C@@H](C)/C=C/C(=O)O[C@@H]2[C@H](C)[C@H](CC1)O[C@]1(CC[C@H](C)[C@H](C[C@@H](C)O)O1)[C@H]2C [oligomycin]
mitochondrial pH (A2780 cells [1]; addition of 10µm oligomycin, increase from 8.4): around 8.5

Cc1ccccc1.[Cl][Ru]([Cl])[PH]12CN3CN(CN(C3)C1)C2 [RAPTA-T]
mitochondrial pH (A2780 cells [1]; [6]): 8.4 | mitochondrial pH (A2780 cells [1]; [7]): 8.0

CN1C(=CC=CC=CC2=[N+](CCCCCC(=O)N3CCN(CC(=O)Nc4ccc5c(c4)C(=O)OC54c5ccc(O)cc5Oc5cc(O)ccc54)CC3)c3ccccc3C2(C)C)C(C)(C)c2ccccc21 [5FA-PIP-Cy5]
pKa of the active form [4]: 6.88 | staining of mitochondria (A2780 cells [5]): absolutely no staining of mitochondria

COC(=O)CNC(=O)C(=O)OC [DMOG]
average mitochondrial pH (LT-HSC): the same level of average mitochondrial pH

CO[C@@H]1C[C@@H](C[C@H]2CC[C@H](C)[C@H]([C@@H](C)C(=O)O)O2)O[C@]2(O[C@](C)([C@H]3CC[C@@](C)([C@@H]4O[C@@H]([C@H]5O[C@@](O)(CO)[C@H](C)C[C@@H]5C)C[C@@H]4C)O3)C[C@H]2C)[C@@H]1C [nigericin]
collapse of the mitochondrial pH gradient [2]: no full gradient collapse | 5Fluo-Cy5 ratio [3]: clear measurable decrease
